Measured values: US20150274639A1, “METHODS OF USE FOR COMPOSITIONS COMPRISING A BIOCIDAL POLYAMINE” (Curza Global, LLC, priority 2013, published 2015)
Converted amounts (≈) assume the structure as drawn. “And” between values parts separate entries of the source, which are not always exact repeats. Equal values may be shown once.

Columns and labels:
MRSA biofilm [1] = assay: EBEC, high number biofilms on PEEK membranes (10^9 to 10^2 CFU/PEEK membrane in 24 hours); type: cell-based, methicillin-resistant Staphylococcus aureus; conditions: Staphylococcus aureus, Table 3B titled MICs, group head missing, values match EBEC
P. aeruginosa biofilm [2] = assay: as above; type: cell-based; conditions: Pseudomonas aeruginosa; Table 3B titled MICs; group head missing, values match EBEC
Protocol: In addition to determining the MIC and the MBEC of polyamine compounds against planktonic bacteria and low number biofilms, our group wanted to determine the efficacy of polyamine compounds against high number biofilms. To do so, biofilms were grown on the surface of polyetheretherketone (PEEK) membranes using a membrane biofilm reactor. This reactor is similar to the CDC biofilm reactor, but rather than growing biofilms on coupon surfaces, the reactor was modified to hold PEEK membranes. In short, to grow biofilms within this system, 500 mL of brain heart infusion (BHI) broth were inoculated with 1 mL of a 0.5 McFarland. The reactor was placed on a hot plate set at 34° C. and the bacteria were grown under batch conditions for 24 hours. Following this protocol, biofilms typically grow to 10^9 CFU/PEEK membrane. […] A solution of 10% BHI was then flowed through the reactor at a rate of 6.94 mL/min for an additional 24 hours. PEEK membranes were then removed and placed into 2 mL of CAMHB that contained a desired concentration of polyamine compound or antibiotic. The EBEC was defined as the concentration of antimicrobial required to reduce a biofilm from approximately 10^9 CFU/PEEK membrane to approximately 10^2 CFU/PEEK membrane in a 24-hour period.

A. baumannii biofilm [3] = assay: MBEC, MBEC Inoculation Tray by Innovotech (to 10^2 CFU/peg in 24 hours); type: cell-based, Acinetobacter baumannii; conditions: Table 4
Source text: (§1) To determine the MBEC of each polyamine compound, the MBEC Inoculation Tray by Innovotech, formerly known as the Calgary biofilm device, was used. Within this device, biofilms grow on the surface of polystyrene pegs, 96 of which are attached to a lid. These pegs are inserted into a flat bottom 96-well plate. In this instance, the MBEC of a molecule was defined as the concentration of compound (in μg/mL) required to reduce 10^5 or 10^6 CFU/peg (biofilm levels varied by isolate) to 10^2 CFU/peg in a 24-hour period.
(§2) Following the manufacturer's guidelines, biofilms were grown on the surface of each peg by first making a 0.5 McFarland of each isolate. The 0.5 McFarland was diluted 1:100 in CAMHB. Into each well of a flat bottom 96-well plate, 150 μL of broth were pipetted. The plate was shaken at 100 rpm for 24 hours (P. aeruginosa and A. baumannii) or 48 hours (MRSA). The pegs were then placed into a separate flat bottom 96-well plate for 10 seconds with 200 μL of phosphate buffered saline (PBS) in each well to remove nonadherent cells. The lid was then placed into a 96-well plate that contained varying concentrations of antimicrobial with 200 μL per well. The plate was incubated for 24 hours at 37° C. after which time 100 μL of broth were plated on TSA. TSA plates were incubated 24 hours at 37° C. and the number of CFU counted to calculate the CFU/peg. In this instance, the MBEC was defined as the concentration of antimicrobial required to reduce 10^5 or 10^6 CFU/peg to 10^2 CFU/peg in a 24 hour period.
To determine the MBEC, the MBEC Inoculation Tray by Innovotech, formerly known as the Calgary biofilm device, is used. Within this device, biofilms grow on the surface of polystyrene pegs, 96 of which are attached to a lid. These pegs are inserted into a flat bottom 96-well plate. In this instance, the MBEC of a molecule is defined as the concentration of compound required to reduce approximately 10^6 CFU/peg to approximately 10^2 CFU/peg in a 24-hour period.
Following the manufacturer's guidelines, biofilms are grown on the surface of each peg by first making a 0.5 McFarland of A. baumannii. The 0.5 McFarland is diluted 1:100 in CAMHB broth. Into each well of a flat bottom 96-well plate, 150 μL of broth is pipetted. The plate is shaken at 100 rpm for 24 hours. The pegs are placed into a separate flat bottom 96-well plate for 10 seconds with 200 μL of phosphate buffered saline (PBS) in each well to remove nonadherent cells. The lid is placed into a 96-well plate that contains varying concentrations of antimicrobial with 200 μL of broth per well. The plate is incubated for 24 hours at 37° C. after which time 100 μL of broth is plated on TSA. TSA plates is incubated 24 hours at 37° C. and the number of CFU counted to calculate the CFU/peg.
MBEC data were collected using the MBEC Inoculation Tray by Innovotech. The MBEC was defined in these preliminary results as the concentration of antimicrobial required to reduce 10^5 or 10^6 CFU/peg to 10^2 CFU/peg in a 24-hour period.

A. baumannii biofilm [4] = assay: EBEC, high number biofilms on PEEK membranes (10^9 to 10^2 CFU/PEEK membrane in 24 hours); type: cell-based, Acinetobacter baumannii; conditions: Table 3B titled MICs, group head missing, values match EBEC; for MIC: Acinetobacter baumannii
P. aeruginosa biofilm [5] = assay: MBEC, MBEC Inoculation Tray by Innovotech (to 10^2 CFU/peg in 24 hours); type: cell-based; conditions: Pseudomonas aeruginosa; Table 3A titled MICs; group head missing, values match MBEC; read-out: MIC, P. aeruginosa (second P. aeruginosa)
Source text: as §1
as §2, with “In this instance, the MBEC was defined as the concentration of antimicrobial required to reduce 10^5 or 10^6 CFU/peg to 10^2 CFU/peg in a 24 hour period.” left out

MRSA = assay: MIC against MRSA as defined by CLSI (FIG. 25 series); type: cell-based, methicillin-resistant Staphylococcus aureus; conditions: Staphylococcus aureus
Protocol: To determine the MIC of the polyamine chains alone and the synthesized compounds against MRSA and P. aeruginosa ATCC 27853, a modified protocol from the Clinical and Laboratory Standards Institute (CLSI) guideline M26-A was used. […] All data was collected using cation adjusted MHB for standardization.
As mentioned, MRSA and P. aeruginosa ATCC 27853 were grown on Columbia blood agar plates prior to experimentation. From the blood agar plates, a 0.5 McFarland standard was made of each isolate. This equated to approximately 5×10^7 cells/mL for the MRSA isolate and approximately 3×10^7 cells/mL for the P. aeruginosa ATCC 27853 isolate. Of the 0.5 McFarland stock solution, 50 μL were added to MHB. […] All tests were performed such that a final volume of 5 mL of MHB were obtained. This provided a final bacterial concentration of approximately 5×10^5 cells/mL.
Each sample was incubated in glass test tubes at 37° C. for 24 hours, then plated in duplicate on tryptic soy agar (TSA) using a 10-fold dilution series. TSA plates were further incubated 24 hours at 37° C. The number of colony forming units (CFU) that grew were counted in order to calculate the number of bacteria that were present per mL in the original MHB solution.

MRSA biofilm [6] = assay: MBEC, MBEC Inoculation Tray by Innovotech (to 10^2 CFU/peg in 24 hours); type: cell-based, methicillin-resistant Staphylococcus aureus; conditions: for MIC: Staphylococcus aureus, MRSA, Table 3A titled MICs, group head missing, values match MBEC; for MBEC, MRSA: Table 4

Compound: NCCCNCCCNCc1cccc(CNCCCNCCCN)c1 [CZ-25]
- MIC (MRSA biofilm [1]): > 5000 µg/mL
- MIC (P. aeruginosa biofilm [2]): > 5000 µg/mL
- MBEC, A. baumannii (A. baumannii biofilm [3]): 450 μg/mL and 1234 μM
- MIC (A. baumannii biofilm [4]): > 5000 µg/mL
- MIC (P. aeruginosa biofilm [5]): > 500 µg/mL
- MIC (MRSA): 45 µg/mL (≈ 123 µM)
- MIC (MRSA biofilm [6]): 25 µg/mL (≈ 68.6 µM)
- MBEC, MRSA (MRSA biofilm [6]): 25 μg/mL and 69 μM

Compound: Polymyxin B sulfate [reference compound]
- MBEC, A. baumannii (A. baumannii biofilm [3]): 50 μg/mL and 36 μM
- MIC, A. baumannii (A. baumannii biofilm [4]): 1,000 μg/mL

Compound: NCCCNCCCNCc1cc(CNCCCNCCCN)cc(CNCCCNCCCN)c1 [CZ-52]
- MIC (MRSA biofilm [1]): 250 µg/mL (≈ 492 µM)
- MIC (P. aeruginosa biofilm [2]): > 5000 µg/mL
- MBEC, A. baumannii (A. baumannii biofilm [3]): > 500 μg/mL and 995 μM
- MIC (A. baumannii biofilm [4]): > 5000 µg/mL
- MIC (P. aeruginosa biofilm [5]): 400 µg/mL (≈ 788 µM)
- MIC (MRSA): 3 µg/mL (≈ 5.91 µM)
- MIC (MRSA biofilm [6]): 20 µg/mL (≈ 39.4 µM)
- MBEC, MRSA (MRSA biofilm [6]): 20 μg/mL and 40 μM

Compound: NCCCNCCCNCc1cc(CNCCCNCCCN)cc(-c2ccccc2)c1 [CZ-58]
- MBEC, A. baumannii (A. baumannii biofilm [3]): > 50 μg/mL and > 113 μM
- MBEC, MRSA (MRSA biofilm [6]): 30 μg/mL and 68 μM
